Measurements from paper PMC12748266, “Testing antimicrobial peptides inhibiting protein synthesis in living E. coli and K. pneumoniae using bio-orthogonal non-canonical amino-acid tagging” (Frontiers in Microbiology, 2025).
Values after ≈ are worked out from the molar mass of the structure shown. Where two headings read alike, the source gives them in different places. No end group written: not given here.

Legend:
Type in all cases: cell-based, Escherichia coli
[1] = system: E. coli ATCC 25922; assay: microbe, parasite or virus in culture; details: for MIC: read-out: MIC
Procedure: […] Each peptide, diluted at a starting concentration of 128 μM in supplemented M9 medium was added to the first column of wells of a 96-well round-bottom microplate (Sarstedt, Milan, Italy). Serially two-fold dilution (1:1) were performed across subsequent wells to a final volume of 50 μL. 50 μL of bacterial suspension (1 × 10^7 CFU/mL) were then added to each well, to a final bacterial concentration in each well to 5 × 10^6 CFU/mL per well. Untreated bacterial culture was used as growth control, while 100 μL of uninoculated supplemented M9 medium was used to verify the sterility of the medium. The plates were sealed with parafilm to minimize evaporation and incubated at 37 °C for 18 h. The minimum inhibitory concentration (MIC) was visually determined as the lowest peptide concentration in a well with no visible bacterial growth. Data are reported as the mode of at least three independent experiments.

[2] = system: E. coli ATCC 25922; assay: Cell membrane permeabilization, propidium iodide flow cytometry; details: compound at its MIC, 40 min, 5 × 10^6 CFU/mL, supplemented M9, mean of n = 3
Procedure: Membrane permeabilization of bacteria was then assessed by incubating bacteria at 37 °C, in a final volume of 1 mL, with varying concentrations of each peptide or antibiotic used for the BONCAT assay. 5 min before the ending of the selected incubation time (40 min), propidium iodide probe was added to the samples to a final concentration of 10 μg/mL before analysis using a flow cytometer. A positive control consisted of E. coli cells dehydrated with ethanol (as described above), while untreated cells were used as negative control. The fluorescence of untreated cells was used to establish the gating for positive PI-stained cells. Fixed bacterial cells, subjected to the click chemistry reaction to link the Alexa Fluor azide 488 probe, were analysed by flow cytometry and, among the gates-selected ones, only those that tested positive for Propidium Iodide, and thus permeabilized, were considered for the calculation of the mean fluorescence intensity (MFI) of the Alexa Fluor azide 488.
Samples were analyzed by an Attune NxT® (ThermoFisher) equipped with a blue laser (488 nm) and photomultiplier tubes (PMTs) BL1 (525/50) and BL3 (695/40) to collect fluorescence. All parameters were set in logarithmic scale and the signals were recorded as Area. Forward scattering (FSC) was set to 300 mV, side scattering (SSC) to 350 mV and thresholds to 0.2 for FSC and 0.5 for SSC. The compensation matrix was performed according to the tool software. Hierarchical gates and acquisition flow rate (200 μL/min) were set to avoid coincident events. The files were saved as FCS 3.1 and analysed by FCS Express De Novo software v7. Flow cytometry data are presented as means ± SD from three independent experiments (n = 3).

[3] = system: E. coli ATCC 25922; assay: BONCAT: HPG incorporation into newly synthesized proteins, flow cytometry; details: compound at MIC; for Fluorescence Intensity (% of Control): 10 min pre-incubation then 30 min HPG, untreated = 100%, mean, n ≥ 3; for Decrease in fluorescence compared to untreated bacteria: 40 min total incubation (10 min + 30 min HPG)
Procedure: We used a modified protocol from [Lindivat et al. (2020)]. Briefly, overnight cultures of E. coli ATCC 25922 or K. pneumoniae ATCC 700603, prepared as described above, were diluted to a final concentration of 5×10^6 CFU/mL and allowed to adjust for 30 min at 37 °C. The culture was then incubated at 37 °C in the dark for 10 or 30 min in the presence or absence of each peptide or antibiotic at various concentrations, with a final volume of 1 mL. At this point, only in certain specified experimental assays, the compounds were removed from the supernatant by centrifugation (16,000 × g for 5 min) and bacteria were washed and resuspended in fresh supplemented M9 medium. Then, 32 μL of a 500 μM homopropargylglycine (HPG) solution were added to each sample, resulting in a final concentration of 16 μM in a finale volume of 1 mL. Also included in each assay were two untreated controls containing only bacteria and bacteria treated with 16 μM HPG alone, respectively. All samples were then incubated at 37 °C in the dark for 30 min. After incubation, samples were washed once with 1X filtered Phosphate Buffered Saline (PBS) (centrifuged at 16,000 x g for 5 min) and resuspended in PBS. After washing, samples were fixed with formaldehyde (Sigma Aldrich, USA) to a final concentration of 3% in 1 mL for 1 h at 25 °C. Subsequently, the samples were centrifuged at 16,000 x g for 5 min and resuspended in 1 mL of PBS. If not analysed immediately, the fixed samples were stored at 4 °C prior to performing the click chemistry reaction. Samples were centrifugated at 16,000 x g for 5 min and bacteria cells were dehydrated by ethanol that was added sequentially to achieve a final concentration of 50% (v/v) (3 min of incubation), 80% (v/v) (3 min of incubation), and 95% (v/v) (3 min of incubation). After dehydration, the samples were centrifugated (16,000 × g, 5 min) and resuspended in PBS. For cell analysis by SDS-PAGE, the following variations were implemented: bacterial cells were diluted in supplemented M9 medium to a final density of ~ 1 × 10^9 CFU/mL, and HPG was added to the samples at a final concentration of 160 μM. Bacteria were incubated with HPG for 0, 15, 30, 60, or 120 min at 37 °C in the dark.
The click reaction was carried out according to [Rostovtsev et al. (2002)]. 15 μL of a pre-mix solution (prepared as described above) were added to each sample containing fixed bacteria that had incorporated HPG (30 μL of pre-mix solution in case of samples prepared for SDS-PAGE analysis), resulting in the following final concentrations in each sample: 0.1 mM copper sulfate, 0.5 mM Tris (3-hydroxypropyltriazolylmethyl)amine (THPTA), and 2.5 μM Alexa Fluor azide 488. Additionally, 50 μL of freshly prepared 100 mM sodium ascorbate and 50 μL of 100 mM aminoguanidine were added (100 μL in case of samples prepared for SDS-PAGE analysis), bringing the final volume to 1 mL. The samples were gently inverted once to mix and incubated for 30 min in the dark at 25 °C. Finally, each sample was washed with PBS once (centrifuged at 16,000 × g for 5 min) and resuspended in 1 mL PBS.
An overnight culture of E. coli ATCC 25922, or of K. pneumoniae ATCC 700603, prepared as described above, was diluted to a final concentration of 5 × 10^6 CFU/mL and allowed to adjust for 30 min at 37 °C under shaking. Membrane permeabilization of bacteria was then assessed by incubating bacteria at 37 °C, in a final volume of 1 mL, with varying concentrations of each peptide or antibiotic used for the BONCAT assay. 5 min before the ending of the selected incubation time (40 min), propidium iodide probe was added to the samples to a final concentration of 10 μg/mL before analysis using a flow cytometer. A positive control consisted of E. coli cells dehydrated with ethanol (as described above), while untreated cells were used as negative control. The fluorescence of untreated cells was used to establish the gating for positive PI-stained cells. […]

[4] = Escherichia coli, ATCC25922, 18 h, supplemented M9 medium, 5 × 10^6 CFU/mL, 18 h, 37 °C, visual, mode of at least three experiments

Row | Compound | MIC ([1]; Escherichia coli, ATCC25922, 18 h, Mueller Hinton, 2,5x10^5 CFU/mL, 18 h, 37 °C, mode of at least three experiments) [µM] | MIC ([1]; Escherichia coli, ATCC25922, 18 h, Mueller Hinton, 5x10^6 CFU/mL, 18 h, 37 °C, mode of at least three experiments) [µM] | MIC [1, 4] [µM] | Fold increase in MIC on 20-fold increase in cell density ([1]; MHB, 5×10^6 vs 2,5×10^5 CFU/well) | Membrane permeabilization (% PI +cells) [2] [%] | Membrane permeabilization (% PI +cells) ([2]; listed as Chloramphenicol) [%] | Fluorescence Intensity (% of Control) [3] | Decrease in fluorescence compared to untreated bacteria [3] | Membrane permeabilization (% PI +cells) ([2]; listed as Rifampin) [%] | MIC ([1]; Mueller Hinton, 2,5x10^5 CFU/mL, 18 h, 37 °C, mode of at least three experiments) [µM] | MIC ([1]; Mueller Hinton, 5x10^6 CFU/mL, 18 h, 37 °C, mode of at least three experiments) [µM] | MIC ([1]; supplemented M9 medium, 5 × 10^6 CFU/mL, 18 h, 37 °C, visual, mode of at least three experiments) [µM] | MIC ([1]; ATCC 25922, 18 h) [µM]
1 | O=C(N[C@H](CO)[C@H](O)c1ccc([N+](=O)[O-])cc1)C(Cl)Cl [CHL, Chloramphenicol] | 16 (≈ 5.17 µg/mL) | 64 (≈ 20.7 µg/mL) | 32 (≈ 10.3 µg/mL) | 4-8 fold | <1 | 0 | 20 % of Control | 80% | – | – | – | – | –
2 | CO[C@H]1/C=C/O[C@@]2(C)Oc3c(C)c(O)c4c(O)c(c(/C=N/N5CCN(C)CC5)c(O)c4c3C2=O)NC(=O)/C(C)=C\C=C\[C@H](C)[C@H](O)[C@@H](C)[C@@H](O)[C@@H](C)[C@H](OC(C)=O)[C@@H]1C [RIF, Rifampicin] | – | – | 2 (≈ 1.65 µg/mL) | – | <1 | – | 102 % of Control | did not affect fluorescence intensity | 0 | – | – | – | –
3 | RRIRPRPPRLPRPRPR [Bac7(1–16)] | – | – | – | – | <1 | – | 18 % of Control | – | – | 1 | 2 | 1 | –
4 | RRIRPRPPRLPRPRPRPLPFPRPGPRPIPRPLPFP [Bac7(1–35)] | – | – | – | – | <1 | – | 14 % of Control | – | – | – | – | – | 1
